Measured values taken from BindingDB's records for doi:10.1021/acs.jmedchem.6b01751 (Queen Mary University of London, 2017).

test: Inhibition of RIP1 in mouse L929 cells assessed as reduction in TNFalpha/QVD-Oph-induced necrosis after 24 hrs by Cell Titer-Glo luminescent cell viability assay

Row | Compound | IC50 [nM]
1 | CN1C(=O)[C@@H](NC(=O)c2n[nH]c(Cc3ccccc3)n2)COc2ccccc21 | 1300

test: Inhibition of RIP1 in human U937 cells assessed as reduction in TNFalpha/QVD-Oph-induced necrosis after 24 hrs by Cell Titer-Glo luminescent cell viability assay

Row | Compound | IC50 [nM]
2 | CN1C[C@H](NC(=O)c2cc(Cc3ccccc3)on2)C(=O)N(C)c2ccccc21 | 20
3 | CN1C(=O)[C@@H](NC(=O)c2cc(Cc3ccccc3)on2)COc2ccc(NS(C)(=O)=O)cc21 | 13
4 | CN1C(=O)[C@@H](NC(=O)c2ncn(Cc3ccccc3)n2)COc2ccccc21 | 1.6
5 | CN1C(=O)[C@@H](NC(=O)c2cn(Cc3ccccc3)nn2)COc2ccccc21 | 25
6 | O=C(N[C@H]1CCOc2ccccc2NC1=O)c1cc(Cc2ccccc2)on1 | 631
7 | CN1C(=O)[C@@H](NC(=O)c2nnc(Cc3ccccc3)o2)COc2ccccc21 | 7.9
8 | CN1C(=O)[C@@H](NC(=O)c2coc(Cc3ccccc3)n2)COc2ccccc21 | 2510
9 | CN1C(=O)[C@@H](NC(=O)c2cc(Cc3ccccc3)ccn2)COc2ccccc21 | 40
10 | CN1C(=O)[C@@H](NC(=O)c2cc(Cc3ccccc3)n(C)n2)COc2ccccc21 | 10
11 | CCN1C(=O)[C@@H](NC(=O)c2cc(Cc3ccccc3)on2)COc2ccccc21 | 7940
12 | CN1C(=O)[C@@H](NC(=O)c2cnn(Cc3ccccc3)c2)COc2ccccc21 | 631
13 | CN1C(=O)[C@@H](NC(=O)c2ncc(Cc3ccccc3)o2)COc2ccccc21 | 1
14 | CN1C(=O)[C@@H](NC(=O)c2c[nH]c(Cc3ccccc3)n2)COc2ccccc21 | 2000
15 | CN1C(=O)[C@@H](NC(=O)c2cc(Cc3ccccc3)on2)COc2ccc(-c3cc[nH]n3)cc21 | 6.3
16 | CN1C(=O)[C@@H](NC(=O)c2noc(Cc3ccccc3)n2)COc2ccccc21 | 5
17 | CN1C(=O)[C@@H](NC(=O)c2cn(Cc3ccccc3)cn2)COc2ccccc21 | 6.3
18 | CN1C(=O)[C@@H](NC(=O)c2cccc(Cc3ccccc3)c2)COc2ccccc21 | 398
19 | CC(=O)Nc1ccc2c(c1)N(C)C(=O)[C@@H](NC(=O)c1cc(Cc3ccccc3)on1)CO2 | 7.9
20 | CC(C)Cc1cc(C(=O)N[C@H]2COc3ccccc3N(C)C2=O)no1 | 6310
21 | CN1C(=O)[C@@H](NC(=O)c2cc(CC3CCCCC3)on2)COc2ccccc21 | 501
22 | COC(=O)Nc1ccc2c(c1)N(C)C(=O)[C@@H](NC(=O)c1cc(Cc3ccccc3)on1)CO2 | 10
23 | CN1C(=O)[C@@H](NC(=O)c2cc(Cc3ccccc3)on2)COc2ccc(-c3n[nH]c(=O)o3)cc21 | 3.2
24 | CCCCCc1cc(C(=O)N[C@H]2COc3ccccc3N(C)C2=O)no1 | 126
25 | CN1C(=O)[C@@H](NC(=O)c2nnn(Cc3ccccc3)n2)COc2ccccc21 | 2.5
